One data set deals with human body. Conditions: cited from earlier work.
Data set [1] is described as follows: Example 6: image storage stability (magenta fading), image stabilizer in conditioning bath. How it is done: The same processing steps as in Example 4 were carried out except for changing the conditioning solution and the stabilizing solution as follows.
In this case, the time for the final stabilizing step was one minute and the time for the conditioning step was changed as shown in Table E in the processing.
By using the same method as in Example 1, the image storage stability of the processed film obtained and the vapor pressure of formaldehyde were evaluated.

Data set [2] in a line: Example 3: turbidity of concentrated stabilizing replenisher after passage of time. It counts as physicochemical. The arrangement: key to Turbidity after Passage of Time: E: Neither turbidity nor precipitation.; G: Turbidity occurred very slightly.; M: Slightly precipitation formed at the bottom of the vessel in addition to turbidity.; B: Precipitation layer of 5 mm or more formed on the bottom of the vessel. Conditions: 40° C.; for Turbidity after Passage of Time: 2.0 mol. How it is done: One liter of the concentrated stabilizing replenisher shown below was prepared and filled in a 1.2 liter polyethylene bottle.
After allowing to stand the concentrated solution thus-prepared at 40° C. for 1 month or 6 months, the turbidity of the solution was visually observed.
In addition, the evaluation standards of the turbidity of the solution with the passage of time in Table C are as follows.

Data set [3] can be described thus: Example 1: evaluation of image storage stability (magenta fading), stabilizing solution. The following applies: 2 weeks 60° C. 20% RH. How it is done:
In addition, the time for the stabilization step was changed by changing the length of the processing rack.
Thereafter, the sample was allowed to stand for 2 weeks under the conditions of 60° C. 20% RH and then the magenta density was measured again. Thus, magenta fading was evaluated by the reduced magenta density in the density stage that the magenta density after processing was 1.5. (M fading)

Data set [4] can be described thus: Example 2: fading of the magenta density at intermediate density portion. The following applies: formaldehyde 4.0 mmol, no formula (I) or (II) additive; 2 weeks 60° C., 70% RH. Here is the method: The following processing steps were carried out using the following processing solutions and a cine type automatic processor.
According to a sample, fading of the magenta density at the intermediate density portion and the occurrence of yellow stain at the minimum density portion were observed.

For data set [5] the following is noted: water.

Usually pKa stands for the pH at which an ionisable group is half protonated.

SMILES strings stand for the structures.

On to `C=O` [Formaldehyde, reference compound], for which the “allowable concentration in a working environment” value in the data set with human body (Japan Association of Industrial Health) is ≤ 0.5 ppm. The “harm on inhalation (in words)” value in the data set with human body (human body) is reported as “harmful for the human body”. For the same compound, the “M Fading” value amounted to 0.11 in data set [1] (3 mmol/l, time of conditioning bath 40 sec.); 0.00 in data set [1] (3 mmol/l, time of conditioning bath 90 sec.); 0.00 in data set [1] (3 mmol/l, time of conditioning bath 120 sec.); 0.03 in data set [1] (13 mmol/l, time of conditioning bath 40 sec.); 0.00 in data set [1] (13 mmol/l, time of conditioning bath 90 sec.); 0.00 in data set [1] (13 mmol/l, time of conditioning bath 120 sec.). Also, the “M Fading” value is 0.20 in data set [3] (5 mmol/l, stabilization time 10 sec.); 0.15 in data set [3] (5 mmol/l, stabilization time 20 sec.); 0.08 in data set [3] (5 mmol/l, stabilization time 60 sec.); 0.03 in data set [3] (27 mmol/l, stabilization time 10 sec.); 0.00 in data set [3] (27 mmol/l, stabilization time 20 sec.); 0.00 in data set [3] (27 mmol/l, stabilization time 60 sec.). Besides, the “Turbidity after Passage of Time” value in data set [2] (1 month) and in data set [2] (6 months) was “M” throughout. Moreover, the “turbidity / precipitates on storage (in words)” value in data set [2] (concentrated stabilizing replenisher, 1 month or 6 months) was “white floatings precipitates accumulated on the bottom of the vessel”. The M-Fading in data set [4] is reported as 0.15.

`C=CCNCC=C` [II-3] came in with a pKa in data set [5] of 9.3.

These data come from patent US5270148A, “Processing solution for silver halide color photographic materials and method for processing the materials with the processing solution” (priority 1991, dated 1993).
